# Results: ChEMBL document CHEMBL1201862, “PubChem BioAssay data set” (2004)
#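 Exposure lasted 48 hours, with cells grown in 96-well plates and compounds tested at five concentrations. GI50: concentration for 50% inhibition of growth.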 Active and inactive are the calls of the source. Rule as the data show it: active = GI50 up to about 1.1 µM and inactive = higher.
# Tests used:
# Experiment in all cases: DTP human tumour cell line panel, 48 h
# HT-29 = system: HT-29
# SR = system: SR
# M14 = system: M14
# SK-MEL-28 = system: SK-MEL-28
# UO-31 = system: UO-31
# HOP-62 = system: HOP-62
# HCT-15 = system: HCT-15
# SNB-19 = system: SNB-19
# K562 = system: K562
# SF-539 = system: SF-539
# IGROV-1 = system: IGROV-1
# OVCAR-8 = system: OVCAR-8
# SK-MEL-5 = system: SK-MEL-5
# TK-10 = system: TK-10
# OVCAR-5 = system: OVCAR-5
# SF-268 = system: SF-268
# NCI-H226 = system: NCI-H226
SMILES,GI50 (HT-29),GI50 (SR),GI50 (M14),GI50 (SK-MEL-28),GI50 (UO-31),GI50 (HOP-62),GI50 (HCT-15) [µM],GI50 (SNB-19),GI50 (K562),GI50 (SF-539),GI50 (IGROV-1),GI50 (OVCAR-8),GI50 (SK-MEL-5),GI50 (TK-10),GI50 (OVCAR-5),GI50 (SF-268),GI50 (NCI-H226)
COC(=O)C1=C(O)c2cc(-c3ccccc3)c(-c3ccccc3)c(C#N)c2NC(=O)C1,5.81 µM (inactive),2.96 µM (inactive),4.99 µM (inactive),34.5 µM (inactive),1.4 µM (inactive),20.4 µM (inactive),1.55,20.4 µM (inactive),3.27 µM (inactive),7.33 µM (inactive),0.522 µM (active),4.13 µM (inactive),,,,,
CC(C)c1ccccc1NC(=O)CCc1n[nH]c(=S)o1,> 90.4 µM (inactive),> 100 µM (inactive),> 100 µM (inactive),> 100 µM (inactive),> 100 µM (inactive),> 100 µM (inactive),> 41.7,> 100 µM (inactive),> 50.7 µM (inactive),72.3 µM (inactive),> 100 µM (inactive),> 100 µM (inactive),> 100 µM (inactive),> 100 µM (inactive),> 100 µM (inactive),> 100 µM (inactive),> 100 µM (inactive)
Cc1cc(C)nc(NS(=O)(=O)c2ccc(Nc3c4ccccc4nc4c(C(=O)NCCN(C)C)cccc34)cc2)n1,1.14 µM (inactive),0.302 µM (active),6.5 µM (inactive),5.97 µM (inactive),1.49 µM (inactive),2.52 µM (inactive),5.66,1.85 µM (inactive),2.08 µM (inactive),2.85 µM (inactive),2.83 µM (inactive),0.675 µM (active),5.75 µM (inactive),10.6 µM (inactive),12.8 µM (inactive),2.57 µM (inactive),2.17 µM (inactive)
O=C(N/C(=C\c1ccc(/C=C(\NC(=O)c2ccccc2)c2nc3ccccc3[nH]2)cc1)c1nc2ccccc2[nH]1)c1ccccc1,> 100 µM (inactive),,57.9 µM (inactive),> 100 µM (inactive),> 100 µM (inactive),> 100 µM (inactive),> 100,> 100 µM (inactive),> 100 µM (inactive),> 100 µM (inactive),> 100 µM (inactive),> 100 µM (inactive),> 100 µM (inactive),> 100 µM (inactive),> 100 µM (inactive),> 100 µM (inactive),
CSC(C1c2ccccc2N(c2ccc(C)cc2)C2=NC(=O)N(C)C(=O)C21Cl)S(=O)(=O)c1ccc(C)cc1 (stereo not given),26.2 µM (inactive),,26.9 µM (inactive),21 µM (inactive),22.4 µM (inactive),20.7 µM (inactive),,26.4 µM (inactive),19.1 µM (inactive),17.5 µM (inactive),33.3 µM (inactive),27.8 µM (inactive),17.3 µM (inactive),48.6 µM (inactive),35.3 µM (inactive),23.6 µM (inactive),22.2 µM (inactive)
O=S(=O)(N/N=C/c1ccc(Cl)cc1Cl)c1ccccc1,80.2 µM (inactive),57 µM (inactive),81.1 µM (inactive),67.8 µM (inactive),> 100 µM (inactive),> 100 µM (inactive),> 100,,59 µM (inactive),77.1 µM (inactive),> 100 µM (inactive),71.4 µM (inactive),> 100 µM (inactive),> 100 µM (inactive),> 100 µM (inactive),63.1 µM (inactive),99.3 µM (inactive)
Cc1cc2c(C)n[nH]c2c(C(=O)O)c1C,> 100 µM (inactive),> 100 µM (inactive),,> 100 µM (inactive),85.5 µM (inactive),> 100 µM (inactive),> 100,> 100 µM (inactive),> 100 µM (inactive),> 100 µM (inactive),> 100 µM (inactive),> 100 µM (inactive),,,,,
COc1cc2c(cc1OC)C1Cc3cc(OC)c(OC)cc3N1CC2 (stereo not given),40 µM (inactive),35.9 µM (inactive),20 µM (inactive),32.1 µM (inactive),36.9 µM (inactive),27.6 µM (inactive),,36.2 µM (inactive),27.5 µM (inactive),,52.6 µM (inactive),34.8 µM (inactive),,23 µM (inactive),> 100 µM (inactive),35 µM (inactive),20.3 µM (inactive)
O=C(O)c1c2c(cc3c(=O)c4ccccc4[nH]c13)CCCC2,> 100 µM (inactive),> 100 µM (inactive),,> 100 µM (inactive),> 100 µM (inactive),> 100 µM (inactive),62.7,88.5 µM (inactive),,> 100 µM (inactive),> 100 µM (inactive),> 100 µM (inactive),,> 100 µM (inactive),> 100 µM (inactive),> 100 µM (inactive),> 100 µM (inactive)
O=C(/C=C/c1ccc(Cl)cc1)c1ccncc1,22.3 µM (inactive),45.9 µM (inactive),36.1 µM (inactive),52.6 µM (inactive),40.3 µM (inactive),98.9 µM (inactive),44.5,98.4 µM (inactive),52.2 µM (inactive),25.9 µM (inactive),48.2 µM (inactive),> 100 µM (inactive),53.2 µM (inactive),33.4 µM (inactive),> 100 µM (inactive),85.9 µM (inactive),> 100 µM (inactive)
Cc1nc2ccccc2[s+]c1-c1cnc(NC#N)nc1C(=O)Nc1cccc(Cl)c1,> 100 µM (inactive),> 100 µM (inactive),> 100 µM (inactive),> 100 µM (inactive),> 100 µM (inactive),> 100 µM (inactive),> 100,> 100 µM (inactive),> 100 µM (inactive),> 100 µM (inactive),> 100 µM (inactive),> 100 µM (inactive),> 100 µM (inactive),> 100 µM (inactive),> 100 µM (inactive),> 100 µM (inactive),> 100 µM (inactive)
COc1cc(CCc2ccncc2)cc(OC)c1OC,> 100 µM (inactive),,> 100 µM (inactive),> 100 µM (inactive),> 100 µM (inactive),> 100 µM (inactive),> 100,> 100 µM (inactive),> 100 µM (inactive),> 100 µM (inactive),> 100 µM (inactive),> 100 µM (inactive),> 100 µM (inactive),> 100 µM (inactive),> 100 µM (inactive),> 100 µM (inactive),> 100 µM (inactive)
CCCNCCCCC(NC(C)=O)C(=O)NCc1ccccc1 (stereo not given),> 100 µM (inactive),,> 100 µM (inactive),> 100 µM (inactive),> 100 µM (inactive),> 100 µM (inactive),> 100,> 100 µM (inactive),> 100 µM (inactive),> 100 µM (inactive),> 100 µM (inactive),> 100 µM (inactive),> 100 µM (inactive),> 100 µM (inactive),> 100 µM (inactive),> 100 µM (inactive),> 100 µM (inactive)
N#CC(C(=O)C(=O)C(C#N)c1ccc(Br)cc1)c1ccc(Br)cc1 (stereo not given),8.59 µM (inactive),6.37 µM (inactive),14.2 µM (inactive),14.6 µM (inactive),16.3 µM (inactive),13.2 µM (inactive),13.3,17 µM (inactive),12.6 µM (inactive),15.5 µM (inactive),15.6 µM (inactive),,14.4 µM (inactive),16.8 µM (inactive),18.2 µM (inactive),10.5 µM (inactive),18.1 µM (inactive)
CC(=O)c1ccc(-c2ccc(C(C)=O)s2)s1,> 100 µM (inactive),> 100 µM (inactive),> 100 µM (inactive),1.81 µM (inactive),> 100 µM (inactive),> 100 µM (inactive),> 100,> 100 µM (inactive),> 100 µM (inactive),> 100 µM (inactive),> 100 µM (inactive),> 100 µM (inactive),> 100 µM (inactive),> 100 µM (inactive),> 100 µM (inactive),1.87 µM (inactive),19 µM (inactive)
COC1CC(n2cc(F)c(N)nc2=O)OC1CO (stereo not given),> 100 µM (inactive),,> 100 µM (inactive),> 100 µM (inactive),> 100 µM (inactive),> 100 µM (inactive),> 100,> 100 µM (inactive),> 100 µM (inactive),,,> 100 µM (inactive),> 100 µM (inactive),> 100 µM (inactive),> 100 µM (inactive),> 100 µM (inactive),> 100 µM (inactive)
Fc1ccc(C2SCc3nc4ccccc4n32)cc1Cl (stereo not given),37.1 µM (inactive),27.2 µM (inactive),,24.7 µM (inactive),16.7 µM (inactive),15.5 µM (inactive),,34.4 µM (inactive),16.5 µM (inactive),18.7 µM (inactive),> 10 µM (inactive),21.3 µM (inactive),,27.8 µM (inactive),15.4 µM (inactive),33.6 µM (inactive),23.2 µM (inactive)
CC(=O)c1c(O)c2c([nH]c1=O)CCCC2,24.2 µM (inactive),,39.3 µM (inactive),94.4 µM (inactive),17.2 µM (inactive),19.9 µM (inactive),48.1,18 µM (inactive),> 100 µM (inactive),,32.9 µM (inactive),82.2 µM (inactive),,> 100 µM (inactive),,46.8 µM (inactive),
